Data published in patent US20250368648A1, “MULTI-CYCLIC IRAK AND FLT3 INHIBITING COMPOUNDS AND USES THEREOF” (CHILDREN'S HOSPITAL MEDICAL CENTER, priority 2022, published 2025).

How the values were obtained:
IRAK1 = biological target: T1, IRAK1 (Homo sapiens, UniProt P51617); experiment: RBC HotSpot Kinase Assay, IRAK1; type: biochemical; conditions: HotSpot functional assay, isolated kinase enzyme, 33P-ATP
T1 construct: purchased RBC (Reaction Biology) HotSpot assay
Description: (§1) This assay uses the isolated kinase enzyme. This assay is very useful for determining competition of the inhibitor for ATP and/or substrates and for measuring the kinetics of enzyme inhibition. […] Unlike kinase binding assays that measure competition for ATP, the HotSpot Kinase Assay is a functional assay that measures catalytic activity; as such it measures relative functional potency regardless of the mechanism of enzyme inhibition. This assay uses the form of the various enzymes that are easiest to express, which may not necessarily be the form of the enzyme that exist in the cell. (Sometimes the carboxy terminus has been truncated to aid in expression, or, if it is a receptor kinase, the enzyme itself is isolated from the other parts of the receptor that are involved in regulating kinase activity.)
(§2) The reagent used was as follows: Base Reaction buffer; 20 mM Hepes (pH 7.5), 10 mM MgCl2, 1 mM EGTA, 0.01% Brij35, 0.02 mg/mi BSA, 0.1 mM Na3VO4, 2 mM DTT, 1% DMSO. Required cofactors were added individually to each kinase reaction.
(§3) The reaction procedure was as follows: • 1) Substrates were prepared in freshly prepared Reaction Buffer. • 2) Any required cofactors were delivered to the substrate solution above. • 3) Kinase was delivered into the substrate solution and gently mixed. • 4) Compounds were delivered in 100% DMSO into the kinase reaction mixture by Acoustic technology (Echo550, nanoliter range), followed by incubation for 20 min at room temp. • 5) ^33P-ATP was delivered into the reaction mixture to initiate the reaction. • 6) The mixture was incubated for 2 hours at room temperature. • 7) Kinase activity was detected by P81 filter-binding method.

MOLM14 D835Y cells = experiment: MOLM14 D835Y cell viability assay (Cell Titer Glo); type: cell-based
Experimental: The cell line has activated FLT3 receptors which carry additional resistance mutations in the kinase domain (D835Y).
MOLM14 D835Y cells were grown in RPMI-1640 media supplemented with 20% fetal bovine serum (FBS). […] After cell addition, 23 nL of test compound were transferred into individual wells (22 doses tested for each test compound, with a 1:2 dilution series starting at 10 μM) via a 1536 pin-tool. Bortezomib (final concentration 2.3 μM) was used as a positive control for cell cytotoxicity.

IRAK4 = biological target: T2, IRAK4 (Homo sapiens, UniProt Q9NWZ3); experiment: RBC HotSpot Kinase Assay, IRAK4; type: biochemical; design: purchased RBC (Reaction Biology) HotSpot assay; conditions: HotSpot functional assay, isolated kinase enzyme, 33P-ATP
T2 sequence (Q9NWZ3 1-460): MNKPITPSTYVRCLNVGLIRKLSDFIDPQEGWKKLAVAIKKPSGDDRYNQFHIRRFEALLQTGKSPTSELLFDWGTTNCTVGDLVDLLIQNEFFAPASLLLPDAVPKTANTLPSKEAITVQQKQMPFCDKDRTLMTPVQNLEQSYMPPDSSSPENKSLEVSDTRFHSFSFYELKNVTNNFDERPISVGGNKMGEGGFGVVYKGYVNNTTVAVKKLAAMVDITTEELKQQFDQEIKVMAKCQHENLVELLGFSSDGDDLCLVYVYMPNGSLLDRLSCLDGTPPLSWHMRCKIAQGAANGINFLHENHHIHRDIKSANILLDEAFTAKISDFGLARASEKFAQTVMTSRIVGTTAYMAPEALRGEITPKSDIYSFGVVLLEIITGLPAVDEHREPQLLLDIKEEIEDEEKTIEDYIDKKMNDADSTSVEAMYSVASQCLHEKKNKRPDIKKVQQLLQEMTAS
Description: as §1, §2, §3

FLT3 = biological target: T3, FLT3 (Homo sapiens, UniProt P36888); experiment: RBC HotSpot Kinase Assay, FLT3; type: biochemical; design: purchased RBC (Reaction Biology) HotSpot assay; conditions: HotSpot functional assay, isolated kinase enzyme, 33P-ATP
T3 sequence (P36888 27-993): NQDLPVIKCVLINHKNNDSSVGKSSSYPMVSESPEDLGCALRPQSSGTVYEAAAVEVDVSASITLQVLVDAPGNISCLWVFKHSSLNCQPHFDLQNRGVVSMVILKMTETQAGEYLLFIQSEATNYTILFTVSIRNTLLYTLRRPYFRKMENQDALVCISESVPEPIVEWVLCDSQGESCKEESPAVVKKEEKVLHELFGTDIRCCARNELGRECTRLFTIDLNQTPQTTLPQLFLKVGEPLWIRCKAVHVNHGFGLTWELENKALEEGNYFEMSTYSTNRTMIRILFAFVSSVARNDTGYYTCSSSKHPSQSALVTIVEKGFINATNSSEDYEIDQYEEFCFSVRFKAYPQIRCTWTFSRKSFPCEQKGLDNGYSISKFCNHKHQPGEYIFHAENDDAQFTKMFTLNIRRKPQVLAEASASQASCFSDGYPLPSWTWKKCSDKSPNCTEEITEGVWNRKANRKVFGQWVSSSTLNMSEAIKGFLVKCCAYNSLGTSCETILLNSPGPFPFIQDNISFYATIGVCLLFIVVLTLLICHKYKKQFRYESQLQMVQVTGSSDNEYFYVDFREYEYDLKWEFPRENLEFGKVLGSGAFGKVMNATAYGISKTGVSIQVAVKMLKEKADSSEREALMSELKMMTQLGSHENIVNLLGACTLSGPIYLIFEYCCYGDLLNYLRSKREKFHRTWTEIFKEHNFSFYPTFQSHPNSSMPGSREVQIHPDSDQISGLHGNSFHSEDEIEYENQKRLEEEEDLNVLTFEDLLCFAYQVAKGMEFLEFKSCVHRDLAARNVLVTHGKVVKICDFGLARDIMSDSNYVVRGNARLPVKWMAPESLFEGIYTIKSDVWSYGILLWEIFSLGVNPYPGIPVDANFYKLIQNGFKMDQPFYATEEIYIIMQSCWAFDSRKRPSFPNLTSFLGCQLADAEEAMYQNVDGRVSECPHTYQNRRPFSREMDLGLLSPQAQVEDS
Description: as §1, §2, §3

T1 sequence (P51617 whole entry): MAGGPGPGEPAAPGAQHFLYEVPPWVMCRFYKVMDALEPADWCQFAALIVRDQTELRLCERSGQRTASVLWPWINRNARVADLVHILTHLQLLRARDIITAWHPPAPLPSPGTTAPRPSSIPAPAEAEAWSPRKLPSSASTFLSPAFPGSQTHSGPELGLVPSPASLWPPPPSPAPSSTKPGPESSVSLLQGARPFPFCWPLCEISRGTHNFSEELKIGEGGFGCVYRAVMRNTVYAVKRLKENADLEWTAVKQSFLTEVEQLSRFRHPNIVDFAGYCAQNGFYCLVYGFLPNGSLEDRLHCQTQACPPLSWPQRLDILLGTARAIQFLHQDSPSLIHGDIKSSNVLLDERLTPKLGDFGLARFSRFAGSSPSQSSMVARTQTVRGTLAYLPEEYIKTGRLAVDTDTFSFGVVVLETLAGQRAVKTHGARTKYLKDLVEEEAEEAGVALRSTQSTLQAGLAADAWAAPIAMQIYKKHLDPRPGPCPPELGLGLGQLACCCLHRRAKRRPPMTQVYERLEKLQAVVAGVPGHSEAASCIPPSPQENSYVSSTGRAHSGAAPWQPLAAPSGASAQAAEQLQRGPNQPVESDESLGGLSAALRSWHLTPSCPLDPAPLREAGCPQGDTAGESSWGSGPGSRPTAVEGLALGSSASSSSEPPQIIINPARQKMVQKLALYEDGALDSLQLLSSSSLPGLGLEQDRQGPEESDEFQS

| SMILES | IC50 (IRAK1) [nM] | IC50 (MOLM14 D835Y cells; Homo sapiens, MOLM-14, 48 h) [nM] | IC50 (IRAK4) [nM] | IC50 (FLT3) [nM] | IC50 (MOLM14 D835Y cells; 48 hours) [nM] |
| --- | --- | --- | --- | --- | --- |
| COc1cc2ncc(-c3nc(N[C@@H]4CCCNC4)ccc3F)n2nc1C(C)(C)O [Compound 3a] | 437 | 46 | 148 | 1 |  |
| COc1cc2ncc(-c3cccc(N[C@H]4CNCC[C@@H]4F)n3)n2nc1N1CCCC1=O [Compound 26a, 1-(3-(6-(((3S,4S)-4-fluoropiperidin-3-yl)amino)pyridin-2-yl)-7-methoxyimidazo[1,2-b]pyridazin-6-yl)pyrrolidin-2-one] | 290 | 257 | 237 | 0.9 |  |
| COc1cc2ncc(-c3ccc(F)c(N[C@@H]4CCCNC4)n3)n2nc1C(C)(C)O [Compound 6a, (R)-2-(3-(5-fluoro-6-(piperidin-3-ylamino)pyridin-2-yl)-7-methoxyimidazo[1,2-b]pyridazin-6-yl)propan-2-ol] | 2850 | 289 | 558 | 9 |  |
| COc1cc2ncc(-c3ccc(F)c(N[C@@H]4CCCNC4)n3)n2nc1C1CC1 [Compound 49a, (R)-6-(6-cyclopropyl-7-methoxyimidazo[1,2-b]pyridazin-3-yl)-3-fluoro-N-(piperidin-3-yl)pyridin-2-amine] | 449 | 51 | 3 | < 0.5 |  |
| COc1cc2ncc(-c3nc(N[C@@H]4CCCNC4)ccc3C)n2nc1C1CC1 [Compound 40a, (R)-6-(6-cyclopropyl-7-methoxyimidazo[1,2-b]pyridazin-3-yl)-5-methyl-N-(piperidin-3-yl)pyridin-2-amine] | > 10000 | 129 | 18 | < 0.5 |  |
| COc1cc2ncc(-c3nc(N[C@H]4CNCC[C@@H]4F)ccc3C)n2nc1C1CC1 [Compound 39a, 6-(6-cyclopropyl-7-methoxyimidazo[1,2-b]pyridazin-3-yl)-N-((3S,4S)-4-fluoropiperidin-3-yl)-5-methylpyridin-2-amine] | 3360 | 129 | 45 | < 0.5 |  |
| COc1cc2ncc(-c3nc(N[C@H]4CNCC[C@@H]4F)c(F)cc3F)n2nc1C(C)(O)C(F)(F)F (single isomer, unassigned) [Compound 76a] | 580 |  | 78 | < 0.5 | 81 |
| COc1cc2ncc(-c3ccc(F)c(N[C@H]4CNCC[C@@H]4F)n3)n2nc1C1CC1 [Compound 48a, 6-(6-cyclopropyl-7-methoxyimidazo[1,2-b]pyridazin-3-yl)-3-fluoro-N-((3S,4S)-4-fluoropiperidin-3-yl)pyridin-2-amine] | 169 | 26 | 1 | < 0.5 |  |
| COc1cc2ncc(-c3nc(N[C@H]4CNC[C@@H]4F)c(F)cc3F)n2nc1C(C)(O)C(F)(F)F (single isomer, unassigned) [Compound 78a] | 983 |  | 92 | 1 | 229 |
| Fc1cc(F)c(-c2cnc3cc(OCC(F)F)cnn23)nc1N[C@@H]1CCCNC1 [Compound 83a, (R)-6-(7-(2,2-difluoroethoxy)imidazo[1,2-b]pyridazin-3-yl)-3,5-difluoro-N-(piperidin-3-yl)pyridin-2-amine] | 1750 | 91 | 53 | 0.5 |  |
| COc1cc2ncc(-c3nc(N[C@@H]4CCCNC4)c(F)cc3F)n2nc1C(C)(O)C(F)(F)F (single isomer, unassigned) [Compound 79a] | 822 |  | 521 | < 0.5 | 81 |
| COc1cc2ncc(-c3nc(N[C@H]4CNCC[C@@H]4F)ccc3F)n2nc1C(C)(C)O [Compound 4a, 2-(3-(3-fluoro-6-(((3S,4S)-4-fluoropiperidin-3-yl)amino)pyridin-2-yl)-7-methoxyimidazo[1,2-b]pyridazin-6-yl)propan-2-ol] | 221 | 29 | 27 | < 0.5 |  |
| COc1cc2ncc(-c3nc(N[C@@H]4CCCNC4)c(F)cc3F)n2nc1C1CCC1 [Compound 14a, (R)-6-(6-cyclobutyl-7-methoxyimidazo[1,2-b]pyridazin-3-yl)-3,5-difluoro-N-(piperidin-3-yl)pyridin-2-amine] | 12 | 15 | 4 | < 0.5 |  |
| COc1cc2ncc(-c3ccc(F)c(N[C@H]4CNC[C@@H]4F)n3)n2nc1C(C)(C)O [Compound 5a, 2-(3-(5-fluoro-6-(((3S,4S)-4-fluoropyrrolidin-3-yl)amino)pyridin-2-yl)-7-methoxyimidazo[1,2-b]pyridazin-6-yl)propan-2-ol] | 2670 | 408 | 70 | 7 |  |
| COc1cc2ncc(-c3cc(C4CC4)cc(N[C@@H]4CCCNC4)n3)n2nc1C1CC1 [Compound 58a, (R)-4-cyclopropyl-6-(6-cyclopropyl-7-methoxyimidazo[1,2-b]pyridazin-3-yl)-N-(piperidin-3-yl)pyridin-2-amine] | > 10000 |  | > 10000 | 5 |  |
| COc1ccc(N[C@H]2CNC[C@@H]2F)nc1-c1cnc2cc(OC)c(C3CC3)nn12 [Compound 36a, 6-(6-cyclopropyl-7-methoxyimidazo[1,2-b]pyridazin-3-yl)-N-((3S,4S)-4-fluoropyrrolidin-3-yl)-5-methoxypyridin-2-amine] | > 10000 |  | 341 | 105 |  |
| COc1cc2ncc(-c3cc(-c4ccccc4)cc(N[C@H]4CNC[C@@H]4F)n3)n2nc1C1CC1 [Compound 54a, 6-(6-cyclopropyl-7-methoxyimidazo[1,2-b]pyridazin-3-yl)-N-((3S,4S)-4-fluoropyrrolidin-3-yl)-4-phenylpyridin-2-amine] | 9510 |  | 6530 | 949 |  |
| COc1cc2ncc(-c3nc(N[C@H]4CNC[C@@H]4F)c(F)cc3F)n2nc1C12CC(C1)C2 [Compound 66a, 6-(6-(bicyclo[1.1.1]pentan-1-yl)-7-methoxyimidazo[1,2-b]pyridazin-3-yl)-3,5-difluoro-N-((3S,4S)-4-fluoropyrrolidin-3-yl)pyridin-2-amine] | 21 |  | 2 | < 0.5 |  |
